This is an account of results in PMC11997890, “In Vivo and In Vitro Pharmacokinetic Studies of a Dual Topoisomerase I/II Inhibitor” (ACS Pharmacology & Translational Science, 2025).

A short description of data set [1]: In vitro biotransformation of P8-D6 with pig liver fractions. Type of data set: in vitro ADME. To be noted: for formation of metabolite from P8-D6: 1 mM P8-D6, 150 min. As to the method:
P8-D6 (1 mM) was incubated with postnuclear supernatant (PNS), microsomes, or S9 reaction mixture of various tissue samples (liver, kidney, lung, spleen, and colon) from different donor species (pigs, mice, rats, and humans) for 150 min (study preparation scheme supplied as Figure S5). The commercial human and rat enzymes were subjected to quality control by the supplier. Three phase I metabolites were identified. […] LC-MS and NMR spectroscopic data for the metabolites are given in Supporting Information. Based on the structural characteristics, the metabolites were named as follows: P8-DO (4), P8-D6 N-oxide (6), and P8-D6 mono (8). All metabolites were synthesized to confirm the postulated structure (chapter Synthesis of Metabolites). The extent of metabolism during in vitro incubation was highly dependent on the species (pig > mouse > rat > human) (Figure ).
For all phase I metabolism studies (except cell cultures), a 0.3 mL reaction mixture consisting of 1 mM substrate (P8-D6, P8-D6 mono, P8-D6 N-oxide), 1 mM NADPH as a cofactor, 0.67 mg/mL protein from homogenized tissue or subcellular fractions, respectively (except recombinant enzymes, where 0.5 mg/mL was used), and PBS buffer (pH 7.4) was used. All experiments were performed in biological triplicates. The FDA Guidance for Industry highlights 7 CYP isoenzymes (1A2, 2B6, 2C8, 2C9, 2C19, 2D6, and 3A4/5) which routinely should be tested for metabolism during drug development. Table S1 presents an overview of the tissue material and species as well as the CYP enzymes used in this study. All reactions were carried out at 37 °C in a shaking water bath for 150 min before they were stopped with 0.3 mL of an ice-cold mixture of acetonitrile/methanol (1:1). The suspension was vortexed for 30 s and centrifuged at 15000 g for 5 min, and finally, 10 μL of the supernatant was injected into the HPLC. Control samples were prepared with buffer instead of either protein/tissue, cofactor, or substrate.

Data set [2] in a line: In vivo elimination via urine and feces over 24 h. More on the design: species or system Sprague–Dawley rats. The note with it: for P8-D6 (plus glucuronide) exceeds metabolite in feces: 24 h cumulative. As for the experimental part:
To investigate the elimination of P8-D6 and its phase I and phase II metabolites, urine and feces samples were collected over the course of 24 h and examined.
To examine possible in vivo phase II metabolites, an enzymatic hydrolysis with glucuronidase/sulfatase from Helix pomatia was performed with both urine and feces samples. […] No sulfate phase II metabolites were observed.
(§1) Effects of the diet were reduced by fasting the rats overnight prior to P8-D6 application. Blood samples were taken at 5, 15, 30, 60, 120, 180, 300, 360, and 600 min after i.v. application or 30, 60, 90, 120, 240, and 600 min after p.o. application. Immediately afterward, the plasma was collected by centrifugation at 2000 g for 10 min. The rats were housed in metabolic cages to collect the urine in specially attached containers. Urine and feces samples were collected every 2 h. The rats were euthanized by CO2 inhalation. The harvested organs (kidney, spleen, lung, liver, and colon) were weighed and submerged in liquid nitrogen. All collected samples were stored at −80 °C until analysis.
Thirty mg of feces was added to 100 μL of a 0.15 M NaCl solution and stirred in the vortex for 30 s. Afterward, 200 μL of an ice-cold mixture of acetonitrile/methanol (2:1) was added before vortexing again for 30 s. Finally, the suspension was centrifuged at 15000 g for 5 min. 40 μL of the supernatant was injected into the HPLC. The samples from three mice per group were analyzed. Calibration/control samples were prepared the same way with fecal samples collected ahead of the in vivo study. For calibration, the matrix was spiked with a defined concentration of the analyte. Final concentrations ranged from 0 nmol/g to 200 nmol/g. Triple determinations were performed and prepared on each respective day. 50 μL of urine was mixed with 100 μL of an ice-cold mixture of acetonitrile/methanol (2:1) and stirred in the vortex for 5 min. The suspension was centrifuged at 15000 g for 5 min, and 40 μL of the supernatant was injected into the HPLC. Calibration/control samples were prepared the same way with urine samples collected ahead of the in vivo study. For calibration, the matrix was spiked with a defined concentration of the analyte. Final concentrations ranged from 0 to 10 μM. Triple determinations were performed and prepared on each respective day. LoD: 0.02 μM (urine), 0.22 nmol/g (feces); LoQ: 0.06 μM (urine), 0.72 nmol/g (feces). Additionally, to identify phase II metabolites, feces (30 mg) and urine (50 μL) from the in vivo study were incubated with arylsulfatase (at pH 6.2) and glucuronidase (at pH 4.5) from Helix pomatia in acetate buffer for 2 h in a 37 °C water bath. For reference, feces and urine without enzyme and 4-nitrophenylsulfate and 4-nitrophenylglucuronide were incubated as well. All experiments were performed in biological triplicates.

A short description of data set [3]: In vivo tissue distribution of P8-D6 and metabolites. More on the design: species or system Sprague–Dawley rats. As for the experimental part: Another part of this in vivo study was to identify in vivo metabolites and determine the tissue distribution of P8-D6 (study preparation scheme supplied as Figure S5). […] P8-D6 N-oxide reached c max/p.o. of 0.054 μM at 30 min, and all following results were below the limit of quantification (LoQ).
P8-D6 and P8-D6 mono each constituted about 20–30% of the detected derivatives. The extent of metabolism was, to a certain degree, organ-dependent (spleen > colon > lungs > kidney > liver). The highest concentration of P8-DO was found in the spleen at 8.7 nmol/g and the lowest in the liver at 4.5 nmol/g.
as §1
100 μL of each tissue homogenate/PNS was mixed with 200 μL of an ice-cold mixture of acetonitrile/methanol (2:1) and stirred in the vortex for 5 min. The suspension was centrifuged at 20000 g for 10 min, and 50 μL of the supernatant was injected into the HPLC. The samples from six mice per group were analyzed. Calibration/control samples were prepared the same way with organ samples collected from equal Sprague–Dawley rats from nonpharmacological studies prepared according to chapter Tissue/Enzymes. For calibration, the matrix was spiked with a defined concentration of the analyte. Final concentrations ranged from 0 to 10 nmol/g. Triple determinations were performed and prepared on each respective day. LoD: 0.81 nmol/g (spleen), 0.33 nmol/g (liver), 0.48 nmol/g (lungs), 1.14 nmol/g (colon), 0.38 nmol/g (kidney); LoQ: 2.69 nmol/g (spleen), 1.09 nmol/g (liver), 1.59 nmol/g (lungs), 3.80 nmol/g (colon), 1.28 nmol/g (kidney).

Data set [4] concerns NCI-60 human tumor cell lines. Put plainly: NCI-60 DTP Human Tumor Cell Lines Screening. The data set is classed as cell-based. The note with it: for GI50: Homo sapiens, NCI-60 panel.
[5] abbreviates: spleen, liver, lungs, kidney, colon after P8-D6.

In the case of `COc1cc(-c2cc3ccncc3c3nc(OCC[N+](C)(C)[O-])c4cnccc4c23)cc(OC)c1OC` [P8-D6 N-oxide], the “formation of metabolite from P8-D6” value in data set [1] (pig liver PNS) is 6.88%; in data set [1] (pig liver S9-fraction), 7.58%; in data set [1] (pig liver microsomes), 28.67%. Further, the “P8-D6 (plus glucuronide) exceeds metabolite in feces” value in data set [2] stood at 31 fold. The molecule also yielded a concentration in feces in data set [2] (after 2 h) of 2.90 nmol/g. Further, the “detectable in feces up to” value in data set [2] (rat, in vivo) is given as “up to 8 h”. For the same molecule, the detection in tissue result in data set [3] (setting [5]) is given as “no P8-D6 N-oxide was observed at all”.

In the case of `CNCCOc1nc2c3cnccc3cc(-c3cc(OC)c(OC)c(OC)c3)c2c2ccncc12` [P8-D6 mono], the “formation of metabolite from P8-D6” value in data set [1] (pig liver microsomes) turned out to be 1.31%. Besides, in data set [1] (porcine liver microsomes), the “extent of formation lower than P8-D6 N-oxide” value turned out to be 21.9 fold. Also, the GI50 in data set [4] stood at 37 nM. The “P8-D6 (plus glucuronide) exceeds metabolite in feces” value in data set [2] amounted to 3.7 fold. Besides, the “proportion of all derivatives detected in tissue” value (shortened to “proportion”) in data set [3] (setting [5]) is listed as 20–30%.

On to `COc1cc(-c2cc3ccncc3c3nc(OCCN(C)C)c4cnccc4c23)cc(OC)c1OC` [P8-D6, 6-(N,N-dimethyl-2-aminoethoxy)-11-(3,4,5-trimethoxyphenyl)-pyrido[3,4-c][1,9]-phenanthroline], for which the GI50 in data set [4] is 49 nM. Further, the “proportion” value in data set [3] (setting [5]) is reported as 20–30%.

In the case of `COc1cc(-c2cc3ccncc3c3[nH]c(=O)c4cnccc4c23)cc(OC)c1OC` [P8-DO], the “formation of metabolite from P8-D6” value in data set [1] (pig liver microsomes) was 0.13%. The efficacy against cancer entry in data set [4] (NCI 60 Cell Screening) was “ineffective against cancer”. In data set [2] (24 h), the “detection in urine and feces” value is listed as “absent”. Moreover, the concentration in tissue in data set [3] (liver (lowest)) was found to be 4.5 nmol/g; in data set [3] (spleen (highest)), 8.7 nmol/g. For the same molecule, the “proportion” value in data set [3] (setting [5]) is recorded as “about 50%”.
